Where two headings read alike, the source gives them in different places.
Columns and labels:
Format in all cases: cell-based
LoVo = test: SRB colorimetric cell growth inhibition assay, LoVo; conditions: Homo sapiens, LoVo; for GI50: GI=growth inhibition, read-out: GI50 LOVO; for CC50: LC=cell killing (cytotoxic effect); for IC (TGI): TGI=total growth inhibition (cytostatic effect), read-out: TGI LOVO
How it was run: (§1)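 Tested samples remained on human cancer cell cultures throughout the incubation; viable biomass was then stained with SRB and read colorimetrically.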

IGROV-ET = test: SRB colorimetric cell growth inhibition assay, IGROV-ET (ET-743 resistant); conditions: Homo sapiens; for GI50: GI=growth inhibition, read-out: GI50 IGROV-ET; for CC50: LC=cell killing (cytotoxic effect); for IC (TGI): TGI=total growth inhibition (cytostatic effect), read-out: TGI IGROV-ET
How it was run: as §1

HT-29 = test: SRB colorimetric cell growth inhibition assay, HT-29; conditions: Homo sapiens; for CC50: LC=cell killing (cytotoxic effect); for GI50 / IC (TGI): HT-29; for GI50: GI=growth inhibition, read-out: GI50 HT-29; for IC (TGI): TGI=total growth inhibition (cytostatic effect), read-out: TGI HT-29
How it was run: as §1

IGROV = test: SRB colorimetric cell growth inhibition assay, IGROV; conditions: Homo sapiens, IGROV; for GI50: GI=growth inhibition, read-out: GI50 IGROV; for CC50: LC=cell killing (cytotoxic effect); for IC (TGI): TGI=total growth inhibition (cytostatic effect), read-out: TGI IGROV
How it was run: as §1

SKOV-3 = test: SRB colorimetric cell growth inhibition assay, SKOV-3; conditions: Homo sapiens; for GI50: SK-OV-3, SKOV-3, GI=growth inhibition, read-out: GI50 SKOV-3; for CC50: SK-OV-3, read-out: LC50 SKOV-3; for IC (TGI): SK-OV-3, SKOV-3, TGI=total growth inhibition (cytostatic effect), read-out: TGI SKOV-3
Source text: Inhibition of Cell Growth by Colorimetric Assay.
A colorimetric type of assay, using sulforhodamine B (SRB) reaction has been adapted for a quantitative measurement of cell growth and viability (following the technique described by P. A. Skehan, et al., J. Natl. Cancer Inst. 1990, 82, 1107-1112).
This form of assay employs 96 well cell culture microplates of 9 mm diameter (T. Mosmann et al., J. of Immunological Methods 1983, 65, 55-63; G. T. Faircloth et al., J. of Tissue and Culture Methods 1988, 11, 201-205).
Most of the cell lines are obtained from American Type Culture Collection (ATCC) derived from different human cancer types.
The values for mean +/− SD of data from triplicate wells are calculated. Some parameters for cellular responses can be calculated: GI=growth inhibition, TGI=total growth inhibition (cytostatic effect) and LC=cell killing (cytotoxic effect).

K-562 = test: SRB colorimetric cell growth inhibition assay, K-562; conditions: Homo sapiens; for GI50: GI=growth inhibition, read-out: GI50 K-562; for CC50: LC=cell killing (cytotoxic effect); for IC (TGI): TGI=total growth inhibition (cytostatic effect), read-out: TGI K-562
How it was run: as §1

LoVo-Dox = test: SRB colorimetric cell growth inhibition assay, LoVo-Dox (MDR); conditions: Homo sapiens; for GI50: GI=growth inhibition, read-out: GI50 LOVO-DOX; for CC50: LC=cell killing (cytotoxic effect); for IC (TGI): TGI=total growth inhibition (cytostatic effect), read-out: TGI LOVO-DOX
How it was run: as §1

DU-145 = test: SRB colorimetric cell growth inhibition assay, DU-145; conditions: Homo sapiens; for GI50: GI=growth inhibition, read-out: GI50 DU-145; for CC50: LC=cell killing (cytotoxic effect); for IC (TGI): TGI=total growth inhibition (cytostatic effect), read-out: TGI DU-145
How it was run: as §1

SK-MEL-28 = test: SRB colorimetric cell growth inhibition assay, SK-MEL-28; conditions: Homo sapiens; for GI50: GI=growth inhibition, read-out: GI50 MEL-28; for CC50: LC=cell killing (cytotoxic effect); for IC (TGI): SK-MEL-28, MEL-28, TGI=total growth inhibition (cytostatic effect), read-out: TGI MEL-28
How it was run: as §1

A-549 = test: SRB colorimetric cell growth inhibition assay, A-549; conditions: Homo sapiens; for GI50: GI=growth inhibition, read-out: GI50 A-549; for CC50: LC=cell killing (cytotoxic effect); for IC (TGI): TGI=total growth inhibition (cytostatic effect), read-out: TGI A-549
How it was run: as §1

PANC-1 = test: SRB colorimetric cell growth inhibition assay, PANC-1; conditions: Homo sapiens; for GI50: GI=growth inhibition, read-out: GI50 PANC-1; for CC50: LC=cell killing (cytotoxic effect); for IC (TGI): TGI=total growth inhibition (cytostatic effect), read-out: TGI PANC-1
How it was run: as §1

SK-BR-3 = test: SRB colorimetric cell growth inhibition assay, SK-BR-3; conditions: Homo sapiens; for GI50: GI=growth inhibition, read-out: GI50 SK-BR-3; for CC50: LC=cell killing (cytotoxic effect); for IC (TGI): TGI=total growth inhibition (cytostatic effect), read-out: TGI SK-BR-3
How it was run: as §1

COc1cc(-c2c3c4cc(OC)c(OC(=O)[C@@H](N)CC(C)C)cc4oc(=O)c3n3ccc4c(OC(=O)[C@@H](N)CC(C)C)c(OC)c(OC)cc4c23)ccc1OC(=O)[C@@H](N)CC(C)C [Compound 45]
GI50 (LoVo): 0.771 µM | CC50 (LoVo; read-out: LC50 LOVO): 11.5 µM | IC (TGI) (LoVo): 6.71 µM | GI50 (IGROV-ET; IGROV-ET): 2.58 µM | CC50 (IGROV-ET; IGROV-ET, read-out: LC50 IGROV-ET): 11.5 µM | IC (TGI) (IGROV-ET; IGROV-ET): 8.07 µM | CC50 (HT-29; HT-29, HT-29, read-out: LC50 HT-29): 11.5 µM | GI50 (HT-29): 11.5 µM | IC (TGI) (HT-29): 11.5 µM | GI50 (IGROV): 1.57 µM | CC50 (IGROV; read-out: LC50 IGROV): 10.9 µM | IC (TGI) (IGROV): 4.12 µM | GI50 (SKOV-3): 0.175 µM | CC50 (SKOV-3): 11.5 µM | IC (TGI) (SKOV-3): 2.2 µM | GI50 (K-562; K562, K-562): 0.315 µM | CC50 (K-562; K562, K-562, read-out: LC50 K-562): 8.79 µM | IC (TGI) (K-562; K562, K-562): 1.73 µM | GI50 (LoVo-Dox; LOVO-DOX): 0.778 µM | CC50 (LoVo-Dox; LOVO-DOX, read-out: LC50 LOVO-DOX): 11.5 µM | IC (TGI) (LoVo-Dox; LOVO-DOX): 4.51 µM | GI50 (DU-145; DU-145, DU-145): 0.105 µM | CC50 (DU-145; DU-145, DU-145, read-out: LC50 DU-145): 11.5 µM | IC (TGI) (DU-145; DU-145, DU-145): 0.549 µM | GI50 (SK-MEL-28; SK-MEL-28, MEL-28): 0.898 µM | CC50 (SK-MEL-28; SK-MEL-28, MEL-28, read-out: LC50 MEL-28): 11.5 µM | IC (TGI) (SK-MEL-28): 11.5 µM | GI50 (A-549; A549, A-549): 4.35 µM | CC50 (A-549; A549, A-549, read-out: LC50 A-549): 11.5 µM | IC (TGI) (A-549; A549, A-549): 11.5 µM | GI50 (PANC-1; PANC-1, PANC-1): 2.03 µM | CC50 (PANC-1; PANC-1, PANC-1, read-out: LC50 PANC-1): 11.5 µM | IC (TGI) (PANC-1; PANC-1, PANC-1): 9.75 µM | GI50 (SK-BR-3; SK-BR-3, SK-BR-3): 0.414 µM | CC50 (SK-BR-3; SK-BR-3, SK-BR-3, read-out: LC50 SK-BR-3): 11.5 µM | IC (TGI) (SK-BR-3; SK-BR-3, SK-BR-3): 1.58 µM

COc1cc(-c2c3c4cc(OC)c(OC(=O)[C@H](N)C(C)C)cc4oc(=O)c3n3ccc4c(OC(=O)[C@H](N)C(C)C)c(OC)c(OC)cc4c23)ccc1OC(=O)[C@H](N)C(C)C [Compound 43]
CC50 (LoVo; read-out: LC50 LOVO, LOVO): 12.1 µM | GI50 (LoVo): 0.635 µM | IC (TGI) (LoVo): 3.72 µM | GI50 (IGROV-ET; IGROV-ET): 0.098 µM | IC (TGI) (IGROV-ET; IGROV-ET): 3.24 µM | CC50 (IGROV-ET; read-out: LC50 IGROV-ET, IGROV-ET): 12.1 µM | CC50 (HT-29; HT-29, read-out: LC50 HT-29, HT-29): 12.1 µM | GI50 (HT-29): 12.1 µM | IC (TGI) (HT-29): 12.1 µM | CC50 (IGROV; read-out: LC50 IGROV, IGROV): 8.94 µM | GI50 (IGROV): 0.418 µM | IC (TGI) (IGROV): 2.14 µM | GI50 (SKOV-3): 0.146 µM | CC50 (SKOV-3): 12.1 µM | IC (TGI) (SKOV-3): 1.14 µM | GI50 (K-562; K562, K-562): 0.118 µM | IC (TGI) (K-562; K562, K-562): 0.565 µM | CC50 (K-562; K562, read-out: LC50 K-562, K-562): 12.1 µM | GI50 (LoVo-Dox; LOVO-DOX): 0.937 µM | IC (TGI) (LoVo-Dox; LOVO-DOX): 3.14 µM | CC50 (LoVo-Dox; read-out: LC50 LOVO-DOX, LOVO-DOX): 9.84 µM | GI50 (DU-145; DU-145, DU-145): 0.0574 µM | IC (TGI) (DU-145; DU-145, DU-145): 0.301 µM | CC50 (DU-145; DU-145, read-out: LC50 DU-145, DU-145): 12.1 µM | GI50 (SK-MEL-28; SK-MEL-28, MEL-28): 0.498 µM | CC50 (SK-MEL-28; SK-MEL-28, read-out: LC50 MEL-28, MEL-28): 12.1 µM | IC (TGI) (SK-MEL-28): 12.1 µM | GI50 (A-549; A549, A-549): 1.9 µM | IC (TGI) (A-549; A549, A-549): 12.1 µM | CC50 (A-549; A549, read-out: LC50 A-549, A-549): 12.1 µM | GI50 (PANC-1; PANC-1, PANC-1): 1.49 µM | IC (TGI) (PANC-1; PANC-1, PANC-1): 6.57 µM | CC50 (PANC-1; PANC-1, read-out: LC50 PANC-1, PANC-1): 12.1 µM | GI50 (SK-BR-3; SK-BR-3, SK-BR-3): 0.212 µM | IC (TGI) (SK-BR-3; SK-BR-3, SK-BR-3): 1.1 µM | CC50 (SK-BR-3; SK-BR-3, read-out: LC50 SK-BR-3, SK-BR-3): 7.9 µM

— patent publication US7396837B2, “Antitumoral analogs of lamellarins” (Pharma Mar, S.A.U., priority 2002, dated 2008)
